# From PubChem BioAssay AID732 (Emory University Molecular Libraries Screening Center, 2007)
# “And” between values parts separate entries of the source, which are not always exact repeats. Identical values can stand only once. The source made the active and inactive calls. How the calls were made is not given here. Peptide text beside a SMILES is read from it. * marks the point of attachment. Cbz = O=C(OCc1ccccc1)*
# Test system: in vivo angiogenesis, blood vessel count
# Test: reduction of blood vessel formation in vivo – HTS, in vivo study (AID 732);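 further: zebrafish embryos dosed at one day post fertilization; 0% = reference inhibitor and 100% = plate mean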
# Settings: active compounds read low;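 tested at 30 µM in the well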
row,SMILES,vessel count % control
1,CN(C)S(=O)(=O)c1ccc2c(c1)/C(=C/c1cc3c([nH]1)CCCC3)C(=O)N2,120% (inactive)
2,C[C@@H](CN1CCC(Cc2ccccc2)CC1)[C@@H](O)c1ccc(O)cc1,112% (inactive)
3,CC(C)NC[C@@H](O)COc1ccc(CC(N)=O)cc1,94.2% (inactive)
4,Cc1c2ccncc2c(C)c2c1[nH]c1ccccc12,110% (inactive)
5,O=[N+]([O-])c1cccc2c(Br)[nH]nc12,99.9% (inactive)
6,C[C@](N)(Cc1ccc(O)c(O)c1)C(=O)O,97.4% (inactive)
7,c1ccc2c(N3CCNCC3)cccc2c1,97.1% (inactive)
8,CC(=O)NCCc1c[nH]c2ccccc12,103% (inactive)
9,CN[C@H]1CC[C@@H](c2ccc(Cl)c(Cl)c2)c2ccccc21,98% (inactive)
10,CC[N+](CC)(CC)CC(=O)Nc1c(C)cccc1C,85.1% (inactive)
11,NCC(O)c1ccc(O)c(O)c1 (stereo unspecified),108% (inactive)
12,COc1cc2ncnc(Nc3cccc(Cl)c3)c2cc1OC,34.6%
13,CC(N)C(=O)OC(C)(C)Cc1ccc(Cl)cc1 (stereo unspecified),112% (inactive)
14,Nc1ccc(N2C(=O)c3ccccc3C2=O)c(Cl)c1,78.4% (inactive)
15,CSc1ccc2c(c1)C(N1CCN(C)CC1)Cc1ccccc1S2 (stereo unspecified),60.6% (inactive)
16,CN1CCC23CCCC[C@H]2C1Cc1ccc(O)cc13 (stereo partly specified),100% (inactive)
17,NN=C(N)N,92.2% (inactive) and 80.5% (inactive)
18,O=c1[nH]cnc2[nH]ncc12,120% (inactive)
19,CCN(CC)C(=O)c1ccc(O)c(OC)c1,96.8% (inactive)
20,O=C(O)CCCc1ccc(N(CCCl)CCCl)cc1,118% (inactive)
21,Cc1cc(C(C)(C)C)cc(C)c1CC1=NCCN1,101% (inactive)
22,CCCNC(C)C(=O)Nc1ccccc1C (stereo unspecified),108% (inactive)
23,CCOC(=O)C1=C(C)NC(C)=C(C(=O)OC)C1c1cccc([N+](=O)[O-])c1 (stereo unspecified),89.9% (inactive)
24,NCC(O)(CS(=O)(=O)O)c1ccc(Cl)cc1 (stereo unspecified),94.5% (inactive)
25,O=C(c1ccc2c(c1)OCCO2)N1CCCCC1,106% (inactive)
26,O=c1[nH]c2cc([N+](=O)[O-])c([N+](=O)[O-])cc2[nH]c1=O,104% (inactive)

row,SMILES,vessel count % control
1,C[N+](C)(C)CC#CCN1CCCC1=O,99.6% (inactive)
2,CCN(CC)CCCC(C)Nc1ccnc2cc(Cl)ccc12 (stereo unspecified),108% (inactive)
3,COc1ccc(/C=C/C(=O)Nc2ccccc2C(=O)O)cc1OC,100% (inactive)
4,NC(Cn1oc(=O)[nH]c1=O)C(=O)O (stereo unspecified),129% (inactive)
5,COc1ccc(NC(=O)/C=C/c2ccc(Cl)cc2)cc1,106% (inactive)
6,COc1cc(CC(=O)O)ccc1O,116% (inactive)
7,CCCCCCCCCCCCCCCCCC(=O)NCC(COP(=O)([O-])OCC[N+](C)(C)C)OCC (stereo unspecified),101% (inactive)
8,COc1ccc2cc([C@H](C)C(=O)O)ccc2c1,101% (inactive)
9,NCCc1ccc(O)c(O)c1,91.6% (inactive)
10,O=P1(N(CCCl)CCCl)NCCCO1 (stereo unspecified),105% (inactive)
11,CC(C)[C@H](NC(=O)OCc1ccccc1)C(=O)N[C@H](C=O)Cc1ccccc1 (Cbz-Val-Phe-aldehyde),107% (inactive)
12,Oc1[nH]c2ccccc2c1C1=Nc2ccc(Br)cc2/C1=N\OCCBr,79.9% (inactive)
13,CCNC(=O)[C@H]1O[C@@H](n2cnc3c(N)nc(NCCc4ccc(CCC(=O)O)cc4)nc32)C(O)[C@H]1O (stereo partly specified),93.7% (inactive)
14,COCCCC/C(=N\OCCN)c1ccc(C(F)(F)F)cc1,145% (inactive)
15,COc1ccc(Cc2nccc3cc(OC)c(OC)cc23)cc1OC,110% (inactive)
16,CCN(CC)CCOC(=O)C1(C2CCCCC2)CCCCC1,86.4% (inactive)
17,N=C(N)SCCc1cnc[nH]1,150% (inactive)
18,NC(N)=NC(=O)c1nc(Cl)c(N2CCCCCC2)nc1N,119% (inactive)
19,NCCNC(=O)c1ncsc1-c1cccc(F)c1,102% (inactive)
20,Clc1ccc(Cn2c(CN3CCCC3)nc3ccccc32)cc1,81.8% (inactive)
21,CN1CCN(CCCN2c3ccccc3Sc3ccc(C(F)(F)F)cc32)CC1,105% (inactive)
22,CC(N)=O,108% (inactive)
23,Cc1cc(C)c(/C=C2\C(=O)Nc3ccccc32)[nH]1,0% (inactive)
24,CCCn1c(=O)c2[nH]c(-c3ccc(S(=O)(=O)O)cc3)nc2n(CCC)c1=O,70.2% (inactive)
25,C#CCN(C)Cc1ccccc1,91.4% (inactive)
26,NCCCC(N)(C(=O)O)C(F)F (stereo unspecified),80.5% (inactive)

row,SMILES,vessel count % control
1,Cn1c(=O)c2c(ncn2C)n(C)c1=O,113% (inactive)
2,C[N+]1(C)CCC(OC(=O)C(c2ccccc2)c2ccccc2)CC1,91.5% (inactive)
3,Ic1ccc(N2CCN(Cc3c[nH]c4ncccc34)CC2)cc1,99.4% (inactive)
4,COc1cc(C(O)CO)ccc1O (stereo unspecified),96.8% (inactive)
5,CCN1C(=O)C=CC1=O,104% (inactive)
6,COc1cc(Cc2cnc(N)nc2N)cc(OC)c1OC,114% (inactive)
7,N#CC(Cc1ccc(O)c(O)c1)C(=O)N1CCc2ccccc21 (stereo unspecified),132% (inactive)
8,CNC[C@H](O)c1ccc(O)c(O)c1,94% (inactive)
9,C=C(C)C1CC=C(C(=O)O)CC1 (stereo unspecified),109% (inactive)
10,CC(C)[C@@]1(NC(=O)[C@@H]2C=C3c4cccc5[nH]cc(c45)C[C@H]3N(C)C2)O[C@@]2(O)[C@@H]3CCCN3C(=O)[C@H](Cc3ccccc3)N2C1=O,94% (inactive)
11,Cc1nc2c([nH]1)c(=O)n(C)c(=O)n2Cc1ccco1,93.1% (inactive)
12,NC(N)=N/N=C/c1c(Cl)cccc1Cl,112% (inactive)
13,CN1C(C(=O)Nc2ccccn2)=C(O)c2ccccc2S1(=O)=O,110% (inactive)
14,N[C@H](C(=O)O)[C@H]1C[C@@H]1C(=O)O,92.9% (inactive)
15,Cc1cc(N)c2ccccc2[n+]1CCCCCCCCCCCCCC[n+]1c(C)cc(N)c2ccccc21,79.9% (inactive)
16,Cc1nnc(SCC2=C(C(=O)O)N3C(=O)[C@@H](NC(=O)Cn4cnnn4)[C@H]3SC2)s1,90.8% (inactive)
17,C[C@@H](N)Cc1cnc[nH]1,97.8% (inactive)
18,NC[C@H](O)c1ccc(O)c(O)c1,86.6% (inactive)
19,O=C(/C=C/c1ccc(O)cc1)c1ccc(O)cc1O,98.4% (inactive)
20,C#CC(N)CCC(=O)O (stereo unspecified),80% (inactive)
21,CN1C2CCC1CC(NC(=O)c1nn(C)c3ccccc13)C2 (stereo unspecified),104% (inactive)
22,NC(=NCc1ccccc1)NC(=O)c1nc(Cl)c(N)nc1N,107% (inactive)
23,COc1ccc([C@@H]2Sc3ccccc3N(CCN(C)C)C(=O)[C@@H]2OC(C)=O)cc1,107% (inactive)
24,C[C@H](NC(=O)/C(C#N)=C/c1ccc(O)c(O)c1)c1ccccc1,102% (inactive)
